Reference: US7816346B2, “Analogs of ansamycin and pharmaceutical compositions thereof” (priority 2006, dated 2010)
pIC50: −log10 of the molar value. Where two headings read alike, the source gives them in different places.

Key:
[1] = test system: MX-1 (human breast carcinoma) cells; assay: in vitro growth inhibition, cytotoxicity assay (Promega CellTiter Blue Cell Viability Assay); type: cell-based; conditions: read-out: IC50, μM MX-1
Method: After 24 hrs., cells were exposed to various concentrations of compound in DMSO and cultured for another 72 hrs. 100 ul of media were removed and 20 ul of Promega CellTiter Blue reagent were added to each well and shaken to mix. […] The fluorescence produced is proportional to the number of viable cells. After plotting fluorescence produced against drug concentration, the IC50 was calculated as the […] of the resulting non-linear regression.

cellular growth = conditions: read-out: concentration that inhibited cellular growth 50% in comparison with untreated controls; cited from earlier work
[2] = cited from earlier work
HSV-1 = conditions: cited from earlier work
[3] = MX-1 cells, 72 hrs exposure, CellTiter Blue

Compound | IC50 [1, 3] [µM] | also measured
C=CC(=O)Nc1cc2c(O)c(c1OC)CC(C)CC(OC)C(O)C(C)C=C(C)C(OC(N)=O)C(OC)C=CC=C(C)C(=O)N2 (centres unmarked) [Compound 12, 18-N-Acrylamide-21-hydroxylgeldanamycin] | 15.3 | –
COC1=C2C[C@@H](C)C[C@H](OC)[C@H](O)[C@@H](C)/C=C(\C)[C@H](OC(N)=O)[C@@H](OC)/C=C\C=C(/C)C(=O)NC(=CC1=O)C2=O [GA, Geldanamycin] | – | pIC50 (cellular growth): 3.46; water solubility [2]: poor water solubility; IC50 ([1]; Homo sapiens, MX1, MX-1 cells, 72 hrs exposure, CellTiter Blue): 0.5 µM; therapeutic index (HSV-1; cellular growth vs HSV-1 replication): over 3700; pIC50 (HSV-1; in vitro, read-out: 50% inhibitory concentration, HSV-1 replication in vitro): 7.03
18-N-(4-Fluoro)benzamide-21-hydroxylgeldanamycin [Compound 8] | 2 | –
18-N-(4-Phenyl)benzamide-21-hydroxylgeldanamycin [Compound 6] | 0.081 | –
18-N-(4-Methoxy)benzamide-21-hydroxylgeldanamycin [Compound 5] | 0.29 | –
COc1c(NS(=O)(=O)c2ccc(C(F)(F)F)cc2)cc2c(O)c1CC(C)CC(OC)C(O)C(C)C=C(C)C(OC(N)=O)C(OC)C=CC=C(C)C(=O)N2 (centres unmarked) [Compound 29, 18-N-(4-trifluoromethylbenzene)sulfamide-21-hydroxylgeldanamycin] | 0.078 | –
18-N-(4-Cyano)benzamide-21-hydroxylgeldanamycin [Compound 7] | 0.13 | –
C=CCNC1=C2C[C@@H](C)C[C@H](OC)[C@H](O)[C@@H](C)/C=C(\C)[C@H](OC(N)=O)[C@@H](OC)/C=C\C=C(/C)C(=O)NC(=CC1=O)C2=O [Compound 17-AAG, 17-allylaminogeldanamycin, reference compound] | – | water solubility [2]: limited aqueous solubility; IC50 ([1]; Homo sapiens, MX1, 72 h): 1.7 µM
18-N-Benzylcarbamate-21-hydroxylgeldanamycin [Compound 16] | 0.088 | –
18-N-Lauramide-21-hydroxylgeldanamycin [Compound 2] | 1.3 | –
18-N-(3,4-Dichloro)benzamide-21-hydroxylgeldanamycin [Compound 9] | 0.8 | –
18-N-(2-Trifluoro)benzamide-21-hydroxylgeldanamycin [Compound 4] | 0.68 | –
18-N-Benzylurea-21-hydroxylgeldanamycin [Compound 49] | 2.4 | –
18-N-(2-Furo)amide-21-hydroxylgeldanamycin [Compound 10] | 7.2 | –
18-N-iso-Nicotinamide-21-hydroxylgeldanamycin [Compound 11] | 0.1 | –
18-N-(4-Nitro)benzamide-21-hydroxylgeldanamycin [Compound 3] | 0.42 | –
18-N-Benzamide-21-hydroxylgeldanamycin [Compound 1] | 1.9 | –
18-N-(3,4-Dichloro)benzamide-21-methoxylgeldanamycin [Compound 70] | 12.4 | –
